In BindingDB's records for doi:10.1124/jpet.105.099705 (Meiji Seika Kaisha, 2006):
Structures can show the parent of a compound that is named as a salt.

Legend:
[1] = target: T1, Neuropeptide Y receptor type 2 (Homo sapiens, UniProt P49146)
T1 sequence (P49146 whole entry): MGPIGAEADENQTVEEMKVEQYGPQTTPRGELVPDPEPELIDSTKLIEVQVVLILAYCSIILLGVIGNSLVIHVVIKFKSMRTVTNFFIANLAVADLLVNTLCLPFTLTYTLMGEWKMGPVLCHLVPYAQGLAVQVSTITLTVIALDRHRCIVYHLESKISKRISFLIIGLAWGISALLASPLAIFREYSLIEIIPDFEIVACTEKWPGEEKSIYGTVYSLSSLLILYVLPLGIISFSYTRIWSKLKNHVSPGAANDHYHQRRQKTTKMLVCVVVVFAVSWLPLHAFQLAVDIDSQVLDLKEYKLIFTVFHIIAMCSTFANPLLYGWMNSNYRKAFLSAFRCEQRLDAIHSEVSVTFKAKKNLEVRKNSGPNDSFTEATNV

[2] = target: T2, Neuropeptide Y receptor type 5 (Homo sapiens, UniProt Q15761)
T2 sequence (Q15761 whole entry): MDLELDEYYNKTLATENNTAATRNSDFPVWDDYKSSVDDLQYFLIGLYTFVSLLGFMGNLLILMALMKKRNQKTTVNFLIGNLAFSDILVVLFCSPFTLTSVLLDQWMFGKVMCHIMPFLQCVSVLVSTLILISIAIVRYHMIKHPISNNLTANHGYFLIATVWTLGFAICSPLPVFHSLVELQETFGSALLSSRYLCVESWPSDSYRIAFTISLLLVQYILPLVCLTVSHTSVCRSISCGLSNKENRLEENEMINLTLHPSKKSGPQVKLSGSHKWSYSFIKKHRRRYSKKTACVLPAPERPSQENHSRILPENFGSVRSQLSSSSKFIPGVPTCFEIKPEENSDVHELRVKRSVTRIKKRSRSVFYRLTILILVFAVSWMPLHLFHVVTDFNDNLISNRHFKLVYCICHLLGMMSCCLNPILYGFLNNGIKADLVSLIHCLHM

[3] = target: T3, Neuropeptide Y receptor type 1 (Homo sapiens, UniProt P25929)
T3 sequence (P25929 whole entry): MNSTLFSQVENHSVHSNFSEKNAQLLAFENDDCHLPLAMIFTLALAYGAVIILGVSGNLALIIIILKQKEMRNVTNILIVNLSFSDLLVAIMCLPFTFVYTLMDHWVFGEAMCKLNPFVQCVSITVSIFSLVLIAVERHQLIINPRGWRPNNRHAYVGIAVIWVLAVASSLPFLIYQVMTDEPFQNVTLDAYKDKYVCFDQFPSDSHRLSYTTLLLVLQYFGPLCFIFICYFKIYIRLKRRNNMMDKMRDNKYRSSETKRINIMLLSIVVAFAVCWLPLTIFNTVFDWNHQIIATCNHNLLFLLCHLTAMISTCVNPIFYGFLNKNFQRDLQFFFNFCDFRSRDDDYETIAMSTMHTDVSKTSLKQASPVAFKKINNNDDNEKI

| IC50 [1] [µM] | IC50 [2] [µM] | IC50 [3] [µM] | SMILES |
| --- | --- | --- | --- |
| > 10 | 0.0043 | – | CC(C)n1c2c(c3cc(NC(=O)N(C)CCc4ccncc4)ccc31)CCCC2 [3-(5,6,7,8-tetrahydro-9-isopropyl-carbazol-3-yl)-1-methyl-1-(2-pyridin-4-yl-ethyl)-ureanbsphydrochloride] |
| > 10 | 0.025 | > 10 | CC1(C)CC(=O)C(C2C3=C(CC(C)(C)CC3=O)Oc3ccccc32)C(=O)C1 (stereo not given) [CAS_6508-43-6] |
